Experimental data as given in ChEMBL document CHEMBL1201862, “PubChem BioAssay data set” (2004).
Active and inactive are the calls of the source.

Columns and labels:
[1] = molecular target: T1, Corticotropin-releasing factor receptor 2/Corticotropin-releasing factor-binding protein (Homo sapiens, UniProt P24387+Q13324); experiment: activators of CRF receptor 2 with binding protein – uHTS hits, confirmation (AID 602473); type: functional; conditions: read-out: EC50_Mean
T1 sequence (Q13324 whole entry): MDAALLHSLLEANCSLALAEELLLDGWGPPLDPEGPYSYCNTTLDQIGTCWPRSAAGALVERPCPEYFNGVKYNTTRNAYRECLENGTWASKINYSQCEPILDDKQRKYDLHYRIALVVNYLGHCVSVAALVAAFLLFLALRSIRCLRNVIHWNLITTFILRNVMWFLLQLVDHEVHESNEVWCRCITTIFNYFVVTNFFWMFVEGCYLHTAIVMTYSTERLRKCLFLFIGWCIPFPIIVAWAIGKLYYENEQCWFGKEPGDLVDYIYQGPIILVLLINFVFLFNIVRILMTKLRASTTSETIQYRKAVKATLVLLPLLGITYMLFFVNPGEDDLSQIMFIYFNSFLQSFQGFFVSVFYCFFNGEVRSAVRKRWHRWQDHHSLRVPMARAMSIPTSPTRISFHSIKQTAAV
T1 sequence (P24387 whole entry): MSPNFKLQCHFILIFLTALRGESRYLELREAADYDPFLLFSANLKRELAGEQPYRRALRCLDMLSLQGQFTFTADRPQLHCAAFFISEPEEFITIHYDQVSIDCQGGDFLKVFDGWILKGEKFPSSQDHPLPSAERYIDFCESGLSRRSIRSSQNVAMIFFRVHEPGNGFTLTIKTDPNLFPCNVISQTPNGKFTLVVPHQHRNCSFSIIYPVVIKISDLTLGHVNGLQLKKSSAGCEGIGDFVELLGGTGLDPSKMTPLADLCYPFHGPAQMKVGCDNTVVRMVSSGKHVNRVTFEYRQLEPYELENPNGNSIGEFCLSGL

[2] = molecular target: T2, Short transient receptor potential channel 4 (Mus musculus, UniProt Q9QUQ5); experiment: calcium entry via TRPC4 opening agents – cell-based, HEK293 TRPC4/mu-opioid, Fluo-4 calcium, dose response (AID 434937); type: functional
T2 sequence (Q9QUQ5 whole entry): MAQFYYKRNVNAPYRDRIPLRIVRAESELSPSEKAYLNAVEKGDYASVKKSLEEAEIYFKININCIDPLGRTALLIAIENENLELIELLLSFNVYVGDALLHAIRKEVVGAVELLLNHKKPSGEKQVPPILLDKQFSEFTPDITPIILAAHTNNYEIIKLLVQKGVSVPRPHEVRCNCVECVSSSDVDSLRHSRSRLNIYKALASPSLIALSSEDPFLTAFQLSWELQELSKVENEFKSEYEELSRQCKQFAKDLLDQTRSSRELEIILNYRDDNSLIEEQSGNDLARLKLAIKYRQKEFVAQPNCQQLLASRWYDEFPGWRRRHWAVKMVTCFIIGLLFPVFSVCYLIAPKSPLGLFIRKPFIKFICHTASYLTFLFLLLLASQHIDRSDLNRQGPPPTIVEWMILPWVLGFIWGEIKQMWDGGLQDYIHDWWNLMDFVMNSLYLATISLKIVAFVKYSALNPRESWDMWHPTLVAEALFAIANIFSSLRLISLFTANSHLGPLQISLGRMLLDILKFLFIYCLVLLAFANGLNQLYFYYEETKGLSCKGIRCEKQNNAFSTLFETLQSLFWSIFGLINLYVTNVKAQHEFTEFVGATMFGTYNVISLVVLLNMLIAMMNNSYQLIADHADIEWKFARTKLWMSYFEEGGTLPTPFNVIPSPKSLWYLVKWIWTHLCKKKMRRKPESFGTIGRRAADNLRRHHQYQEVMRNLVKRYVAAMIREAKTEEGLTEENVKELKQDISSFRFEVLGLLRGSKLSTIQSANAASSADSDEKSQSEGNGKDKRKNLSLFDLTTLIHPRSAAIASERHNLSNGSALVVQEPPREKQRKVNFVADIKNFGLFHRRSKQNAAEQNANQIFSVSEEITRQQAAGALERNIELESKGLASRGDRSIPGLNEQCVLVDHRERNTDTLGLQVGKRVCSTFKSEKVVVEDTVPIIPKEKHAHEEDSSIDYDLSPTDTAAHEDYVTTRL

[3] = molecular target: Glyceraldehyde-3-phosphate dehydrogenase (Homo sapiens, UniProt P04406)
Chain of Glyceraldehyde-3-phosphate dehydrogenase (P04406 whole entry): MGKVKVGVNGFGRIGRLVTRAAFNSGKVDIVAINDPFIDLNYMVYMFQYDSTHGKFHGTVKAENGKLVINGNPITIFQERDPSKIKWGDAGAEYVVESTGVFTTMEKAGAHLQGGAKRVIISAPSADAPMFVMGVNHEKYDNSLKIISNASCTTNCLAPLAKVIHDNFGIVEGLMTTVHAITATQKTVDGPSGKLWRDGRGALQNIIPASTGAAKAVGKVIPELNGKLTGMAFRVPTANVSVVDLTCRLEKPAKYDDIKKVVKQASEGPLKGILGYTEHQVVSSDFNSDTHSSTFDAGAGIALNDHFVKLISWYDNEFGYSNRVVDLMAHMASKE

[4] = molecular target: T3, Caspase-3 (Homo sapiens, UniProt P42574); type: functional;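 also: Dose-response selectivity test against caspase-3 for candidate inhibitors of sentrin-specific proteases (SENPs)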
T3 sequence (P42574 whole entry): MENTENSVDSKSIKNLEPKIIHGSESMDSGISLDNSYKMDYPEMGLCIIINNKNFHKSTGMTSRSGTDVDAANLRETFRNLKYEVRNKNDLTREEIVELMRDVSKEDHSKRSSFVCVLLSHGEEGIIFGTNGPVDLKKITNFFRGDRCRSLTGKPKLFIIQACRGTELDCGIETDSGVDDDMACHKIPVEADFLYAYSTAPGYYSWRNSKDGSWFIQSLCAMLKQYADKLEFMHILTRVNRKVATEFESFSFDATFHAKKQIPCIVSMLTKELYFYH

[5] = molecular target: T4, Sentrin-specific protease 8 (Homo sapiens, UniProt Q96LD8); type: functional;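 also: luminescence read-out of SENP8 inhibition, dose-response confirmation following an ultra-high-throughput screen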
T4 sequence (Q96LD8 whole entry): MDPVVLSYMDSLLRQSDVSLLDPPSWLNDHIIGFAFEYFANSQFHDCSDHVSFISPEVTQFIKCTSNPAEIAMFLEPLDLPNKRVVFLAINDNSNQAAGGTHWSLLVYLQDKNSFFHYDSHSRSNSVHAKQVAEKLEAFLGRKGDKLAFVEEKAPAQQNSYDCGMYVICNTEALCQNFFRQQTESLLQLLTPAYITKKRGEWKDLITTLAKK

[6] = molecular target: T5, Sentrin-specific protease 6 (Homo sapiens, UniProt Q9GZR1); type: functional;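 also: Luminescence-based dose-response confirmatory assay of SENP6 inhibition, following up an ultra-high-throughput screen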
T5 sequence (Q9GZR1 whole entry): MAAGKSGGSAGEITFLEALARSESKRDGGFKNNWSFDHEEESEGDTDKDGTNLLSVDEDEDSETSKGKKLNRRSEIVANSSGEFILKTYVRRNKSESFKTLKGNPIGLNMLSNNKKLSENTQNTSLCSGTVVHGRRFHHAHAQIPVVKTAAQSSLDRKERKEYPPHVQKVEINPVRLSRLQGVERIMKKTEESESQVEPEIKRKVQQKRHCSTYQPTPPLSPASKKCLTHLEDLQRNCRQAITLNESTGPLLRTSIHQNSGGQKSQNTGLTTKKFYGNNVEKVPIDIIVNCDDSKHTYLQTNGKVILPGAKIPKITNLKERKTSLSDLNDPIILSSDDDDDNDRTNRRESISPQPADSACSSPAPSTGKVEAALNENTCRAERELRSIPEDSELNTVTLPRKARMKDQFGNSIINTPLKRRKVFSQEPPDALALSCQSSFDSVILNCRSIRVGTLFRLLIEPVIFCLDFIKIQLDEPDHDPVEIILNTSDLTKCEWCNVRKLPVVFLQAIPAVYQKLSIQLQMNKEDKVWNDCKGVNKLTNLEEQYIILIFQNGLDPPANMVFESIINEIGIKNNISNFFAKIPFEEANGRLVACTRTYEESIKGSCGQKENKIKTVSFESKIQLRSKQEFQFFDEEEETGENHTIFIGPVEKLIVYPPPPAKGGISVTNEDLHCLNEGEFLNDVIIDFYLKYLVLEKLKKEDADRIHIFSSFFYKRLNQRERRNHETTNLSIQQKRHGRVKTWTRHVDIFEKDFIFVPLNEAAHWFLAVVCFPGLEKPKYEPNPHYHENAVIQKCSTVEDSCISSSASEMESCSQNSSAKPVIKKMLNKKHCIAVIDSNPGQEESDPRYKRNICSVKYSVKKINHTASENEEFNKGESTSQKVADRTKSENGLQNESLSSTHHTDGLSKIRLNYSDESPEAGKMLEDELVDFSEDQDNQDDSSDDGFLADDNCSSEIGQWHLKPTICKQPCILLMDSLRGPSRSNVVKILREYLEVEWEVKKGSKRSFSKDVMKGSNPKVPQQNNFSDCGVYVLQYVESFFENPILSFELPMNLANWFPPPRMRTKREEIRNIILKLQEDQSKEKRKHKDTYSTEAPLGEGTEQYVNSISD

[7] = molecular target: T6, Sentrin-specific protease 7 (Homo sapiens, UniProt Q9BQF6); type: functional;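 also: Luminescence-based dose-response confirmation of ultra-high-throughput screening hits, measuring inhibition of SENP7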
T6 sequence (Q9BQF6 whole entry): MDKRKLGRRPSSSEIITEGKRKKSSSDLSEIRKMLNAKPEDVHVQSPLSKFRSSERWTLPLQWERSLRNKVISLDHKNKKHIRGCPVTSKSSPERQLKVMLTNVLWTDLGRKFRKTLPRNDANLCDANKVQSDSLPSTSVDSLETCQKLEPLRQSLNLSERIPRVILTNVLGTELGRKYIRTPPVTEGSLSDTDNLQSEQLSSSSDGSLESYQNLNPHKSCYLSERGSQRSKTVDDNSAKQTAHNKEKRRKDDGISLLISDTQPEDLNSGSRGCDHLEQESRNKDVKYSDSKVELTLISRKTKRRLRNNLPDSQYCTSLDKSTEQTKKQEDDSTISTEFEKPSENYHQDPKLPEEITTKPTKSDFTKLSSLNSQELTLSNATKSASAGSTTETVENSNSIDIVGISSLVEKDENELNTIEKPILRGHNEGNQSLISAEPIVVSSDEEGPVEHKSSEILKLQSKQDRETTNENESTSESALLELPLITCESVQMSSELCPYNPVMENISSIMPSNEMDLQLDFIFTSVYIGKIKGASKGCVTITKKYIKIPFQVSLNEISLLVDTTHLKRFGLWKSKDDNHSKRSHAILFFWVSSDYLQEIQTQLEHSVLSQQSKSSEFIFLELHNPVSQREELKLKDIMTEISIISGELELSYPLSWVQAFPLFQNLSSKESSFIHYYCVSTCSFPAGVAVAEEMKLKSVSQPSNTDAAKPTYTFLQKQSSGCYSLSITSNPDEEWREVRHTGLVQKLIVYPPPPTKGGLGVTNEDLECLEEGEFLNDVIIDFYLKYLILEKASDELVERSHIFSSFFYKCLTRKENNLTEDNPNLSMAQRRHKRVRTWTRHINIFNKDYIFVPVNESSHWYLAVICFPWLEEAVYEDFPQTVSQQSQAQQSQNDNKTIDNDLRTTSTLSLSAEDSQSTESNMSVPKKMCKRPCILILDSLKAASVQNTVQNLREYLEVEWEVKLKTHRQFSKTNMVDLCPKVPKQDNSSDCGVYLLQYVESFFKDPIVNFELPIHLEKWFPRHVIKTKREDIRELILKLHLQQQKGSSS

[8] = molecular target: T7, High affinity choline transporter 1 (Homo sapiens, UniProt Q9GZV3); experiment: human choline transporter blockers, potency – cell-based, 5-point CRC, membrane potential dye, dose response (AID 504840); type: functional
T7 sequence (Q9GZV3 whole entry): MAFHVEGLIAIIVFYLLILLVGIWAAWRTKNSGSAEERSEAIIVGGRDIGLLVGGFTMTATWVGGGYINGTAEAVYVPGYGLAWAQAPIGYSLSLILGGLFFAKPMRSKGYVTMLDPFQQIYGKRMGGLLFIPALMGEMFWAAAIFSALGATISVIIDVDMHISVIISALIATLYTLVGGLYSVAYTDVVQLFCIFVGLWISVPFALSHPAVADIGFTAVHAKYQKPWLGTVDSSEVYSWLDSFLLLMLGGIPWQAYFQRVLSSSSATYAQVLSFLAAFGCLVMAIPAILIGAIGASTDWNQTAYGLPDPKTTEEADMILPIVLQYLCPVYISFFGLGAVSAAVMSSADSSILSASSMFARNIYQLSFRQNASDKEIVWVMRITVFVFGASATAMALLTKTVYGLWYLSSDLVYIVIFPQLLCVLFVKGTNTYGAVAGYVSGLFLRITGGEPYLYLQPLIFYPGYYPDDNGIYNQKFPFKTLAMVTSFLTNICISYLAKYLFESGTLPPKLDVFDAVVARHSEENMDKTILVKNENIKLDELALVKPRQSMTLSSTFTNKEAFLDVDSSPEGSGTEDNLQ

[9] = test system: Vero; experiment: cells; type: functional; conditions: Chlorocebus sabaeus
[10] = molecular target: Induced myeloid leukemia cell differentiation protein Mcl-1 (Homo sapiens, UniProt Q07820); type: functional
Chain of Induced myeloid leukemia cell differentiation protein Mcl-1 (Q07820 whole entry): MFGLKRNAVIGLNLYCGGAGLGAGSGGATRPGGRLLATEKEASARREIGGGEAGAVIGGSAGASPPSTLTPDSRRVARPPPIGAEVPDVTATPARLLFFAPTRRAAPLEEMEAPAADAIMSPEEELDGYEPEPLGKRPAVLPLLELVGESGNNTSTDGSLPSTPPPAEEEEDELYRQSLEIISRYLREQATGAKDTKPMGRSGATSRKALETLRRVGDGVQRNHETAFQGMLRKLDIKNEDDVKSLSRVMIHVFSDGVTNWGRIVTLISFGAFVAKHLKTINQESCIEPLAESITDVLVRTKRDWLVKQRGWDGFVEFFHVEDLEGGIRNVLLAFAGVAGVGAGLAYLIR

[11] = test system: INS1; experiment: INS-1E survival protection against cytokine death – cell-based, luminescence, retest, dose response (AID 449756); type: functional; conditions: Rattus norvegicus;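 also: cell death triggered by IL-1 beta plus TNF-alpha plus IFN-gamma mixture; protective hits raise ATP signal compared with cytokine alone wells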
[12] = viability of uninfected HEp-2 cells – cell-based, HTS, cytotoxicity control for RSV inhibitor project, dose response (AID 2410); type: functional; conditions: human respiratory syncytial virus

SMILES	IC50 [4]	IC50 [5]	IC50 [6]	IC50 [7]	other results
COc1cc(OC)cc(C(=O)N[C@H](C(=O)OCC(=O)NC(C)c2ccccc2)C(C)C)c1 (stereo not given in full)					EC50 [1]: 16.4 µM (active); EC50 [2]: 6.68 µM (active)
CCN1CCN(C2=C(Cl)C(=O)N(c3ccc(C(F)(F)F)cc3)C2=O)CC1					IC50 [3]: > 50 µM (inconclusive)
COc1ccc(NC(=O)c2csc3c2CCCC3)cc1	19.2 µM (active)	> 100 µM (inactive)	> 100 µM (inactive)	7.25 µM (active)	
Cn1c(=O)[nH]c2nnc(-c3ccc(Cl)c(Cl)c3)nc2c1=O					IC50 [8]: 11.2 µM (active)
CSc1ccc(/C=C/C(=O)c2ccc(O)cc2)cc1	19.9 µM (active)	13.4 µM (active)	9.4 µM (active)	4.77 µM (active)	CC50 [9]: 23.8 µM (active)
O=c1c2ccccc2nc(-c2ccco2)n1-c1cccnc1					IC50 [10]: < 0.4 µM (not active)
O=C(NCCCN1CCOCC1)c1ccc(Cl)c(S(=O)(=O)N2CCCCCC2)c1					IC50 [8]: 12.3 µM (active)
O=C(Nc1ccc(-c2noc(-c3cccs3)n2)cc1)c1cccnc1	54.8 µM (active)	> 100 µM (inactive)	76.2 µM (active)	7.2 µM (active)	AC50 [11]: 6.36 µM (active)
C=CCn1c2ccccc2c(=O)c2cc(C#Cc3ccccn3)ccc21	17.5 µM (active)	20.8 µM (active)	14.1 µM (active)	5.93 µM (active)	CC50 [12]: 25.1 µM (active)
Cn1c2ccccc2c(=O)c2c(=O)n(C3CCCCCC3)c(C3CCCCC3)nc21					EC50 [1]: 4.04 µM (active)
CCO/C=C1\C(=O)N(c2ccccc2)C(=O)c2ccccc21	6.63 µM (active)	50.7 µM (active)	16.6 µM (active)	36.9 µM (active)	
